pIC50: −log10 of the molar value.
Each compound was assayed against T1, B-Raf V600E (Homo sapiens, UniProt P15056, V600E) (assay: AlphaScreen kinase assay, B-Raf V600E). Conditions: read-out: IC50, activity toward kinase B-Raf V600E.
T1 construct: P4254. pFastBacBD-CDC37 BRAF D437-K722-X, V600E; His6 with pFastBac HT leader (TEV site) (N); made in house; host or cells: Sf9 (baculovirus; chaperone CDC37 co-expressed)
Type: biochemical

T1 sequence (P15056 with tags, fused parts or gaps V600E): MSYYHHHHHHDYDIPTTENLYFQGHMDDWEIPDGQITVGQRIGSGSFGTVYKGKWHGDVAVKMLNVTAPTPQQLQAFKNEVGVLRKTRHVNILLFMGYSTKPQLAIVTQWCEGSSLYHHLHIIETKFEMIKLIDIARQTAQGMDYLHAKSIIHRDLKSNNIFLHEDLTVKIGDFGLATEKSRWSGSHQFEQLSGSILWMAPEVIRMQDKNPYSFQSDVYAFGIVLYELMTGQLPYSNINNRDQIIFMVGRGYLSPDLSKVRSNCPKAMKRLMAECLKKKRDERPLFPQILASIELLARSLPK

pIC50, ≥ 5.00:
CCC(C)Cc1c[nH]c2ncccc12 (centres unmarked) [Compound P-0386]
Cc1cc(-c2nc(-c3ccnc4[nH]ccc34)no2)n(C(C)(C)C)n1 [Compound P-0893]
CS(=O)(=O)Nc1cccc(-c2cnc3[nH]cc(C(=O)c4cccc5c4OC(F)(F)O5)c3c2)c1 [Compound P-1516, N-{3-[3-(2,2-Difluoro-benzo[1,3]dioxole-4-carbonyl)-1H-pyrrolo[2,3-b]pyridin-5-yl]-phenyl}-methanesulfonamide]
CC(C)Oc1cccc(Nc2cnc3[nH]ccc3c2)c1 [Compound P-1049]
OCc1cccc(-c2ccnc3[nH]cc(Sc4ccc(Cl)cc4)c23)c1 [Compound P-0388]
COc1cnc2[nH]cc(C(O)c3c(F)ccc(NS(=O)(=O)c4ccc(C(F)(F)F)cc4)c3F)c2c1 (centres unmarked) [Compound P-1540]
COC(c1ccc(Br)cc1)c1c[nH]c2ncccc12 (centres unmarked) [Compound P-0552]
Fc1cc(F)cc(-c2ccnc3[nH]cc(Sc4ccccc4)c23)c1 [Compound P-0311]
O=[N+]([O-])c1cccc(Sc2c[nH]c3nccc(-c4cc(F)cc(F)c4)c23)c1 [Compound P-0816]
CC(C)(C)OC(=O)Nc1ccc(Cl)c(C(O)c2c[nH]c3ncccc23)c1F (centres unmarked) [Compound P-1140]
Fc1cccc(Nc2cnc3[nH]ccc3c2)c1 [Compound P-1035]
O=C(Nc1ccc(Cc2c[nH]c3ncccc23)cc1)c1ccccc1 [Compound P-0803]
Cc1cc(C)cc(-c2ccnc3[nH]cc(Sc4cccs4)c23)c1 [Compound P-0255]
Fc1ccc(Nc2cnc3[nH]ccc3c2)cc1 [Compound P-1091]
FC(F)(F)c1ccc(-c2c[nH]c3ncccc23)cc1 [Compound P-1179]
c1ccc(CNc2ccc(Cc3c[nH]c4ncccc34)cc2)cc1 [Compound P-0493]
c1ccc(Cc2nc(-c3ccnc4[nH]ccc34)no2)cc1 [Compound P-0381]
COc1ccccc1-c1c[nH]c2ncccc12 [Compound P-0358]
COc1ccc(Cc2nc(-c3ccnc4[nH]ccc34)no2)cc1 [Compound P-0696]
Cc1nc2ccc(Nc3cnc4[nH]ccc4c3)cc2s1 [Compound P-1030]
COc1ccc(-c2c[nH]c3ncccc23)cc1OCc1ccccc1 [Compound P-0886]
c1cnc2[nH]cc(-c3noc(CCC4CCCC4)n3)c2c1 [Compound P-0833]
CC(C)(C)c1ccc(OCc2nc(-c3ccnc4[nH]ccc34)no2)cc1 [Compound P-1187]
Oc1ccc(F)c(C(O)c2c[nH]c3ncc(Br)cc23)c1F (centres unmarked) [Compound P-1180, 3-[(5-Bromo-1H-pyrrolo[2,3-b]pyridin-3-yl)-hydroxy-methyl]-2,4-difluoro-phenol]
CCCS(=O)(=O)Nc1cccc(C(O)c2c[nH]c3ncc(Br)cc23)c1C (centres unmarked) [Compound P-1607]
Cn1nc(C(C)(C)C)cc1-c1nc(-c2c[nH]c3ncccc23)no1 [Compound P-1177]
COC(c1ccc(N(Cc2ccc(Cl)cc2)C(=O)OC(C)(C)C)nc1)c1c[nH]c2ncccc12 (centres unmarked) [Compound P-1183]
COc1ccc(S(=O)(=O)Nc2ccc(F)c(C(=O)c3c[nH]c4ncccc34)c2F)cc1OC [Compound P-1090, N-[2,4-Difluoro-3-(1H-pyrrolo[2,3-b]pyridine-3-carbonyl)-phenyl]-3,4-dimethoxy-benzenesulfonamide]
N#Cc1ccc(CCc2c[nH]c3ncccc23)cc1 [Compound P-1199]
OCc1cccc(-c2ccnc3[nH]cc(Sc4cc(Cl)cc(Cl)c4)c23)c1 [Compound P-0600]
CC(C)(C)OC(=O)Nc1ccc(-c2c[nH]c3ncccc23)cc1 [Compound P-1195]
FC(F)(F)c1cccc(-c2ccnc3[nH]cc(Sc4cccs4)c23)c1 [Compound P-0651]
Cn1ccc2cc(-c3c[nH]c4ncccc34)ccc21 [Compound P-0713]
CCCCN(c1ccc(F)c(Cc2c[nH]c3ncc(-c4cccnc4)cc23)c1F)S(=O)(=O)c1ccc(C(F)(F)F)cc1 [Compound P-1444]
COc1ccc(OC)c(S(=O)(=O)Nc2ccc(F)c(C(=O)c3c[nH]c4ncccc34)c2F)c1 [Compound P-1131, N-[2,4-Difluoro-3-(1H-pyrrolo[2,3-b]pyridine-3-carbonyl)-phenyl]-2,5-dimethoxy-benzenesulfonamide]
CCC(C)c1ccc(Nc2cnc3[nH]ccc3c2)cc1 (centres unmarked) [Compound P-1128]
O=C(c1c(F)ccc(NS(=O)(=O)c2ccc(-c3cnco3)cc2)c1F)c1c[nH]c2ncc(Cl)cc12 [Compound P-1843, N-[3-(5-Chloro-1H-pyrrolo[2,3-b]pyridine-3-carbonyl)-2,4-difluoro-phenyl]-4-oxazol-5-yl-benzenesulfonamide]
O=C(c1cc([N+](=O)[O-])ccc1Cl)c1c[nH]c2ncccc12 [Compound P-0592]
COC(=O)c1cccc(C#Cc2c[nH]c3ncc(-c4ccc(OC)c(OC)c4)cc23)c1 [Compound P-0646]
CN(C)S(=O)(=O)N(C)c1ccc(F)c(C(=O)c2c[nH]c3ncc(Cl)cc23)c1F [Compound P-1666]

The compounds below were run against T2, FGFR1 (Homo sapiens, UniProt P11362, C488A/C584S) (assay: AlphaScreen kinase assay, FGFR1). Conditions: read-out: IC50, activity toward kinase FGFR.
T2 construct: P1351.pET N6 BI-PTP FGFR A458-E765-X C488A, C584S; made in house; host or cells: E. coli (PTP1B co-expressed)
T2 sequence (P11362 458-765 C488A/C584S): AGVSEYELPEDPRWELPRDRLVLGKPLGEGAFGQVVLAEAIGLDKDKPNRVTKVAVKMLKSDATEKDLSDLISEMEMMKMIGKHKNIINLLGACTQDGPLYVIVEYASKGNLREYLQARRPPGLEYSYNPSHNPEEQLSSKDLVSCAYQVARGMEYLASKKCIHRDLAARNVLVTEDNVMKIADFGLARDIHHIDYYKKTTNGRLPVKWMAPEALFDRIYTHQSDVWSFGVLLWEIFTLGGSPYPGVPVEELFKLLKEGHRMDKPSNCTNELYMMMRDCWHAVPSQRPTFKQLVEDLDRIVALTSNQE
Type: biochemical

pIC50, ≥ 5.00:
CC(C)(C)c1ccc(Cc2c[nH]c3ncccc23)cc1 [Compound P-0828]
CS(=O)(=O)Nc1cccc(-c2cnc3[nH]cc(C(=O)c4cccc5c4OC(F)(F)O5)c3c2)c1 [Compound P-1516, N-{3-[3-(2,2-Difluoro-benzo[1,3]dioxole-4-carbonyl)-1H-pyrrolo[2,3-b]pyridin-5-yl]-phenyl}-methanesulfonamide]
CC(C)Nc1ccc(C(=O)c2c[nH]c3ncccc23)cn1 [Compound P-0227]
COc1cccc(Cc2c[nH]c3nccc(-c4cccc(OC)c4)c23)c1 [Compound P-0979]
Cc1cc(Cc2c[nH]c3ncccc23)ccc1F [Compound P-0510]
Fc1ccc(OCc2ccccc2)c(F)c1Cc1c[nH]c2ncc(-c3cccnc3)cc12 [Compound P-1455, 3-(3-Benzyloxy-2,6-difluoro-benzyl)-5-pyridin-3-yl-1H-pyrrolo[2,3-b]pyridine]
O=C(c1ccc2ccccc2n1)c1c[nH]c2ncccc12 [Compound P-0479]
COc1ccc(Cc2c[nH]c3ncc(Br)cc23)c(F)c1 [Compound P-1322]
Fc1cc(F)cc(Cc2c[nH]c3ncccc23)c1 [Compound P-0374]
c1ccc(CNc2ccc(Cc3c[nH]c4ncccc34)cc2)cc1 [Compound P-0493]
O=C(c1cccc(Cl)c1Cl)c1c[nH]c2ncc(Br)cc12 [Compound P-0294]
COCCOc1ccc(F)c(Cc2c[nH]c3ncc(Br)cc23)c1F [Compound P-1454, 5-Bromo-3-[2,6-difluoro-3-(2-methoxy-ethoxy)-benzyl]-1H-pyrrolo[2,3-b]pyridine]
COCCOc1ccc(F)c(C(=O)c2c[nH]c3ncc(OC)cc23)c1F [Compound P-1584, [2,6-Difluoro-3-(2-methoxy-ethoxy)-phenyl]-(5-methoxy-1H-pyrrolo[2,3-b]pyridin-3-yl)-methanone]
Cc1ccc(F)c(C(=O)c2c[nH]c3ncccc23)c1F [Compound P-1274]
COc1ccc([N+](=O)[O-])cc1C(OC)c1c[nH]c2ncc(Br)cc12 (centres unmarked) [Compound P-1287]
O=C(c1cccc([N+](=O)[O-])c1)c1c[nH]c2ncccc12 [Compound P-0219]
O=C(c1c(F)ccc(Cl)c1F)c1c[nH]c2ncccc12 [Compound P-1272]
Cc1ccc(F)cc1C(=O)c1c[nH]c2ncc(Br)cc12 [Compound P-0424]
CCCNS(=O)(=O)c1ccc(NCC)c(C(=O)c2c[nH]c3ncccc23)c1F [Compound P-1273]
COCCOc1ccc(F)c(C(=O)c2c[nH]c3ncc(Br)cc23)c1F [Compound P-1453, (5-Bromo-1H-pyrrolo[2,3-b]pyridin-3-yl)-[2,6-difluoro-3-(2-methoxy-ethoxy)-phenyl]-methanone]
OC(c1cccc2c1OC(F)(F)O2)c1c[nH]c2ncc(Br)cc12 (centres unmarked) [Compound P-1512]
c1cnc2[nH]cc(Cc3ccc(NCC4CC4)nc3)c2c1 [Compound P-0400]
Cc1ccc(Cc2c[nH]c3ncccc23)cc1C [Compound P-0368]
O=C(c1c(F)ccc(OCc2ccccc2)c1F)c1c[nH]c2ncc(-c3cccnc3)cc12 [Compound P-1467, (3-Benzyloxy-2,6-difluoro-phenyl)-(5-pyridin-3-yl-1H-pyrrolo[2,3-b]pyridin-3-yl)-methanone]
COc1cccc(C(=O)c2c[nH]c3ncc(-c4cc(F)cc(F)c4)cc23)c1 [Compound P-0474]
COc1cnc2[nH]cc(C(=O)c3c(F)ccc(OCc4ccccc4)c3F)c2c1 [Compound P-1597, (3-Benzyloxy-2,6-difluoro-phenyl)-(5-methoxy-1H-pyrrolo[2,3-b]pyridin-3-yl)-methanone]
O=C(c1c[nH]c2ncc(Br)cc12)c1cccc2c1ccn2S(=O)(=O)c1ccccc1 [Compound P-1524, (1-Benzenesulfonyl-1H-indol-4-yl)(5-bromo-1H-pyrrolo[2,3-b]pyridin-3-yl)-methanone]
COc1cccc(Cc2c[nH]c3ncc(-c4ccc(C(=O)C(F)(F)F)[nH]4)cc23)c1 [Compound P-0309]
c1ccc2cc(Cc3c[nH]c4ncccc34)ccc2c1 [Compound P-0575]
Brc1ccc(Cc2c[nH]c3ncccc23)cc1 [Compound P-0615]
O=C(c1c(F)ccc([N+](=O)[O-])c1F)c1c[nH]c2ncc(Br)cc12 [Compound P-1182]
